Assay results from ChEMBL document CHEMBL1201862, “PubChem BioAssay data set” (2004).
Structures can show the parent of a compound that is named as a salt.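 These data come from cells grown in 96-well plates and exposed to compound for 48 hours at five concentrations. GI50 = concentration required for 50% inhibition of growth.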 Activity calls are given as the source filed them. Cut-off read from the data, not from the text of the source: active = GI50 up to about 1.1 µM and inactive = higher.

How the values were obtained:
Test in all cases: growth of human tumour cells (NCI), 48 h
786-0 = test system: 786-0
A498 = test system: A498
A549 = test system: A549
ACHN = test system: ACHN
BT-549 = test system: BT-549
CAKI-1 = test system: CAKI-1
COLO 205 = test system: COLO 205
DU-145 = test system: DU-145
EKVX = test system: EKVX
HCC 2998 = test system: HCC 2998
HCT-116 = test system: HCT-116
HCT-15 = test system: HCT-15
HOP-62 = test system: HOP-62
HOP-92 = test system: HOP-92
HT-29 = test system: HT-29
Hs-578T = test system: Hs-578T
IGROV-1 = test system: IGROV-1
K562 = test system: K562
KM12 = test system: KM12
LOX IMVI = test system: LOX IMVI
M14 = test system: M14
MCF7 = test system: MCF7
MDA-MB-231 = test system: MDA-MB-231
MDA-MB-435 = test system: MDA-MB-435
MDA-N = test system: MDA-N
MOLT-4 = test system: MOLT-4
Malme-3M = test system: Malme-3M
NCI-H226 = test system: NCI-H226
NCI-H23 = test system: NCI-H23
NCI-H460 = test system: NCI-H460
NCI-H522 = test system: NCI-H522
NCI/ADR-RES = test system: NCI/ADR-RES
OVCAR-3 = test system: OVCAR-3
OVCAR-4 = test system: OVCAR-4
OVCAR-8 = test system: OVCAR-8
PC-3 = test system: PC-3
RPMI-8226 = test system: RPMI-8226
SF-268 = test system: SF-268
SF-295 = test system: SF-295
SF-539 = test system: SF-539
SK-MEL-28 = test system: SK-MEL-28
SK-MEL-2 = test system: SK-MEL-2
SK-MEL-5 = test system: SK-MEL-5
SK-OV-3 = test system: SK-OV-3
SN12C = test system: SN12C
SW-620 = test system: SW-620
T47D = test system: T47D
TK-10 = test system: TK-10
U-251 = test system: U-251
UACC-62 = test system: UACC-62
UO-31 = test system: UO-31
CCRF-CEM = test system: CCRF-CEM
HL-60 = test system: HL-60
OVCAR-5 = test system: OVCAR-5
RXF 393 = test system: RXF 393
SNB-19 = test system: SNB-19
SNB-75 = test system: SNB-75
UACC-257 = test system: UACC-257

Measured: GI50

C=C1C[C@@H]2CC[C@@]34C[C@H]5O[C@H]6[C@@H](O3)[C@H]3O[C@H](CC[C@@H]3O[C@H]6[C@H]5O4)CC(=O)C[C@@H]3[C@@H](OC)[C@@H](C[C@H](O)CN)O[C@H]3C[C@H]3O[C@@H](CC[C@@H]1O2)C[C@@H](C)C3=C [ERIBULIN MESYLATE]
active: 786-0 3.28 nM | A498 4.34 nM | A549 1.97 nM | ACHN 55.6 nM | BT-549 7.03 nM | CAKI-1 17.9 nM | COLO 205 0.31 nM | DU-145 1.18 nM | EKVX 7 nM | HCC 2998 2.01 nM | HCT-116 0.74 nM | HOP-62 4.12 nM | HOP-92 3.52 nM | HT-29 0.352 nM | Hs-578T 2.2 nM | IGROV-1 1.51 nM | K562 0.916 nM | KM12 0.326 nM | LOX IMVI 1.4 nM | M14 3.09 nM | MCF7 0.383 nM | MDA-MB-231 2.55 nM | MDA-MB-435 0.0596 nM | MDA-N 0.0759 nM | MOLT-4 0.791 nM | Malme-3M 3.66 nM | NCI-H226 0.522 nM | NCI-H23 1.09 nM | NCI-H460 1.72 nM | NCI-H522 0.25 nM | NCI/ADR-RES 294 nM | OVCAR-3 0.0959 nM | OVCAR-4 3.19 nM | OVCAR-8 5.98 nM | PC-3 0.37 nM | RPMI-8226 0.516 nM | SF-268 2.67 nM | SF-295 6.5 nM | SF-539 0.465 nM | SK-MEL-28 3.61 nM | SK-MEL-2 6.07 nM | SK-MEL-5 0.877 nM | SK-OV-3 0.558 nM | SN12C 3.61 nM | SW-620 2.41 nM | T47D < 0.1 nM | TK-10 81.5 nM | U-251 1.34 nM | UACC-62 0.711 nM | UO-31 126 nM
53 nM: HCT-15

COc1ccccc1/C(=N\OCCC(=O)O)c1cccs1
inactive: 786-0 > 100000 nM | A498 > 100000 nM | A549 > 100000 nM | ACHN > 100000 nM | BT-549 > 100000 nM | CAKI-1 > 100000 nM | CCRF-CEM > 100000 nM | COLO 205 > 100000 nM | DU-145 > 100000 nM | EKVX > 100000 nM | HCC 2998 > 100000 nM | HCT-116 > 100000 nM | HL-60 > 100000 nM | HOP-62 > 100000 nM | HOP-92 > 100000 nM | HT-29 > 100000 nM | Hs-578T 56600 nM | K562 > 100000 nM | KM12 > 100000 nM | LOX IMVI > 100000 nM | MCF7 > 100000 nM | MDA-MB-231 > 100000 nM | MDA-MB-435 > 100000 nM | MDA-N > 100000 nM | MOLT-4 > 100000 nM | Malme-3M > 100000 nM | NCI-H226 > 100000 nM | NCI-H23 > 100000 nM | NCI-H460 > 100000 nM | NCI/ADR-RES > 100000 nM | OVCAR-3 > 100000 nM | OVCAR-4 > 100000 nM | OVCAR-5 > 100000 nM | OVCAR-8 > 100000 nM | PC-3 > 100000 nM | RPMI-8226 > 100000 nM | RXF 393 > 100000 nM | SF-268 > 100000 nM | SF-295 > 100000 nM | SF-539 > 100000 nM | SK-MEL-28 > 100000 nM | SK-MEL-2 > 100000 nM | SK-MEL-5 > 100000 nM | SK-OV-3 > 100000 nM | SN12C > 100000 nM | SNB-19 > 100000 nM | SNB-75 > 100000 nM | SW-620 > 100000 nM | T47D > 100000 nM | TK-10 > 100000 nM | U-251 > 100000 nM | UACC-257 > 100000 nM | UACC-62 > 100000 nM | UO-31 > 100000 nM
> 100000 nM: HCT-15

OC(Cc1cc(CC(O)(C(F)(F)F)C(F)(F)F)nc(CC(O)(C(F)(F)F)C(F)(F)F)c1)(C(F)(F)F)C(F)(F)F
767 nM: HCT-15
active: ACHN 681 nM | CAKI-1 321 nM | COLO 205 918 nM | HCT-116 869 nM | HOP-92 541 nM | Hs-578T 1030 nM | IGROV-1 764 nM | KM12 482 nM | LOX IMVI 390 nM | MCF7 826 nM | NCI-H23 475 nM | NCI-H460 358 nM | OVCAR-3 490 nM | OVCAR-4 851 nM | PC-3 323 nM | SF-295 509 nM | SNB-19 726 nM | SW-620 574 nM | T47D 755 nM | U-251 1000 nM | UACC-62 337 nM
inactive: 786-0 1350 nM | A498 1320 nM | A549 1400 nM | BT-549 2460 nM | CCRF-CEM > 10000 nM | DU-145 1910 nM | EKVX 2070 nM | HCC 2998 1830 nM | HL-60 > 10000 nM | HOP-62 1730 nM | HT-29 1630 nM | K562 > 10000 nM | M14 2430 nM | MDA-MB-231 1920 nM | MDA-MB-435 2390 nM | MDA-N 1450 nM | MOLT-4 3850 nM | Malme-3M 2590 nM | NCI-H226 2750 nM | NCI-H522 3060 nM | NCI/ADR-RES 1660 nM | OVCAR-5 3430 nM | OVCAR-8 1330 nM | RPMI-8226 > 10000 nM | RXF 393 2180 nM | SF-268 1880 nM | SF-539 1690 nM | SK-MEL-28 1980 nM | SK-MEL-2 2020 nM | SK-MEL-5 1510 nM | SK-OV-3 3960 nM | SN12C 2200 nM | SNB-75 1920 nM | TK-10 3990 nM | UACC-257 2050 nM

CCCCOC(=O)C(O)Cc1ccoc1 (stereo unspecified)
> 100000 nM: HCT-15
inactive: 786-0 > 100000 nM | A498 > 100000 nM | A549 > 100000 nM | ACHN > 100000 nM | BT-549 > 100000 nM | CCRF-CEM > 100000 nM | COLO 205 > 100000 nM | DU-145 > 100000 nM | EKVX > 100000 nM | HCC 2998 > 100000 nM | HCT-116 > 100000 nM | HL-60 > 100000 nM | HOP-62 > 100000 nM | HT-29 > 100000 nM | Hs-578T > 100000 nM | IGROV-1 > 100000 nM | K562 > 100000 nM | KM12 > 100000 nM | LOX IMVI > 100000 nM | M14 > 100000 nM | MCF7 > 100000 nM | MDA-MB-231 > 100000 nM | MDA-MB-435 > 100000 nM | MDA-N > 100000 nM | MOLT-4 > 100000 nM | Malme-3M > 100000 nM | NCI-H226 > 100000 nM | NCI-H23 > 100000 nM | NCI-H460 > 100000 nM | NCI-H522 > 100000 nM | NCI/ADR-RES > 100000 nM | OVCAR-3 > 100000 nM | OVCAR-4 > 100000 nM | OVCAR-5 > 100000 nM | OVCAR-8 > 100000 nM | PC-3 > 100000 nM | RPMI-8226 > 100000 nM | RXF 393 > 100000 nM | SF-268 > 100000 nM | SF-295 > 100000 nM | SF-539 > 100000 nM | SK-MEL-28 > 100000 nM | SK-MEL-2 > 100000 nM | SK-MEL-5 > 100000 nM | SK-OV-3 > 100000 nM | SN12C > 100000 nM | SNB-19 > 100000 nM | SNB-75 > 100000 nM | SW-620 > 100000 nM | T47D > 100000 nM | TK-10 > 100000 nM | U-251 > 100000 nM | UACC-62 > 100000 nM | UO-31 > 100000 nM

Cc1cn([C@@H]2O[C@H](CO[Si](C)(C)C(C)(C)C)[C@]3(O[C@H]3C(=O)NO)[C@H]2O[Si](C)(C)C(C)(C)C)c(=O)[nH]c1=O
inactive: 786-0 1540 nM | A498 1900 nM | A549 1820 nM | ACHN 1700 nM | BT-549 1660 nM | CAKI-1 2070 nM | COLO 205 1760 nM | DU-145 1890 nM | EKVX 1840 nM | HCC 2998 1610 nM | HCT-116 1520 nM | HL-60 1610 nM | HOP-62 1760 nM | HOP-92 1940 nM | HT-29 1530 nM | Hs-578T 1920 nM | IGROV-1 1710 nM | K562 2470 nM | KM12 1790 nM | LOX IMVI 1760 nM | M14 1850 nM | MCF7 1710 nM | MDA-MB-231 2090 nM | MDA-MB-435 2070 nM | MDA-N 1580 nM | MOLT-4 1730 nM | Malme-3M 2140 nM | NCI-H226 1940 nM | NCI-H23 1910 nM | NCI-H460 1690 nM | NCI-H522 1520 nM | NCI/ADR-RES 5700 nM | OVCAR-3 1610 nM | OVCAR-4 1750 nM | OVCAR-5 1780 nM | OVCAR-8 1790 nM | PC-3 2260 nM | RPMI-8226 1180 nM | RXF 393 1730 nM | SF-268 1620 nM | SF-295 1770 nM | SF-539 1500 nM | SK-MEL-28 1760 nM | SK-MEL-2 2010 nM | SK-MEL-5 1920 nM | SK-OV-3 1870 nM | SN12C 1610 nM | SNB-19 1660 nM | SNB-75 1710 nM | SW-620 1910 nM | T47D 1660 nM | TK-10 2290 nM | U-251 1700 nM | UACC-257 2590 nM | UACC-62 1820 nM | UO-31 1740 nM
active: CCRF-CEM 634 nM
1870 nM: HCT-15
